Source: ChEMBL document CHEMBL5131409, “Synthesis and characterization of chiral 6-azaspiro[2.5]octanes as potent and selective antagonists of the M4 muscarinic acetylcholine receptor” (Bioorg Med Chem Lett, 2022)

Columns and labels:
[1] = Cmax in mouse plasma at 3 mg/kg, ip; format: ADME, organism-based; design: dose 3 mg/kg, route ip
[2] = Tmax in rat plasma at 3 mg/kg, ip; format: ADME, organism-based
[3] = Volume of distribution in rat at 3 mg/kg, iv; format: ADME, organism-based; conditions: in vivo
[4] = target: T1, Muscarinic acetylcholine receptor M2 (Rattus norvegicus, UniProt P10980); assay: Inhibition of rat muscarinic acetylcholine M2 receptor expressed in CHO cells co-expressing Gqi5 preincubated with compound followed by acetylcholine addition at EC80 concentration by calcium mobilization assay; format: functional, cell-based
T1 sequence (P10980 whole entry): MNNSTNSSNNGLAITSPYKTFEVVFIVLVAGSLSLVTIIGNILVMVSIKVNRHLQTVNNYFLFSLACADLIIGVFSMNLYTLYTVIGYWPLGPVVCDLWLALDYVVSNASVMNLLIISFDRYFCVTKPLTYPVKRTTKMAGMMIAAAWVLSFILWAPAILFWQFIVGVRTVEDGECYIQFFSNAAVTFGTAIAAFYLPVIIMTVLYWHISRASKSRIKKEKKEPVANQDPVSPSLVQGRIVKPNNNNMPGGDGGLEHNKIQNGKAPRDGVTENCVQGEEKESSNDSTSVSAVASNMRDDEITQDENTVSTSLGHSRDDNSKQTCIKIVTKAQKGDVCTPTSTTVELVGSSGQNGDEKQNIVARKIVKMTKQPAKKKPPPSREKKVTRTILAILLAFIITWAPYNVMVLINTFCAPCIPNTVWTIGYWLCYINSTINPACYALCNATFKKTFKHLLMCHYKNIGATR

[5] = target: Cytochrome P450 3A4 (Homo sapiens, UniProt P08684); assay: Inhibition of CYP3A4 in human liver microsomes using cocktail of isoform-specific probe substrate; format: ADME, Microsome
[6] = AUC (0.25 to last) in rat brain at 3 mg/kg, ip; format: ADME, organism-based; conditions: in vivo

Chain of Cytochrome P450 3A4 (P08684 whole entry, canonical isoform): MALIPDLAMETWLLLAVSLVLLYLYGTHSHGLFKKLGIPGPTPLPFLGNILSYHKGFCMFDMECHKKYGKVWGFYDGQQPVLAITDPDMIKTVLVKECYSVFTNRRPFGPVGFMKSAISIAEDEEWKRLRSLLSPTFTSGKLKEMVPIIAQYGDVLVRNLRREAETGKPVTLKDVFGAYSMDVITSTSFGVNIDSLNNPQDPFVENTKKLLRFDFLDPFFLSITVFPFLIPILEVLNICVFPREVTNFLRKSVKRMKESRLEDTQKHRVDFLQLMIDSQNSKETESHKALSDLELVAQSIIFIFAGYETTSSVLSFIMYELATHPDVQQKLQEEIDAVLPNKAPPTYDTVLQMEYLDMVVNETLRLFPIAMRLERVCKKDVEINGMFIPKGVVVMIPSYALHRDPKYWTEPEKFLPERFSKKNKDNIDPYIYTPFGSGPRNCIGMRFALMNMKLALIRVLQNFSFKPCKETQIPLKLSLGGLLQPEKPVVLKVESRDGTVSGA

Cmax [1]: 6870 ng/mL
Tmax [2]: 15 min
Vd [3]: 147 L/kg
IC50 [4]: > 10 µM
IC50 [5]: > 30 µM
AUClast [6]: 2180 ng·h/g
SMILES: CC(=O)Nc1ccc(-c2ccc(NC[C@@H]3CC34CCN(CC3CCOCC3)CC4)nn2)cc1
